Read-outs that look alike come from different tables or passages of the source.
Target: T1, purified catalytic domain of recombinant human TACE (rhTACEc) (Homo sapiens, UniProt P78536, N452Q/S266A)
T1 construct: Residue 215 to 477 with two mutation (S266A and N452Q) and a 6×His tail; 6xHis (C); made in house; host or cells: baculovirus/Hi5 insect cells
Experiment: TACE kinetic assay: cleavage of internally quenched peptide substrate SPDL-3, fluorescence
Type: biochemical

[1] = TACE inhibitory activity, class symbols, read-out: Ki
[2] = TACE, representative compounds, numeric values, read-out: Ki

T1 sequence (P78536 215-477 S266A/N452Q): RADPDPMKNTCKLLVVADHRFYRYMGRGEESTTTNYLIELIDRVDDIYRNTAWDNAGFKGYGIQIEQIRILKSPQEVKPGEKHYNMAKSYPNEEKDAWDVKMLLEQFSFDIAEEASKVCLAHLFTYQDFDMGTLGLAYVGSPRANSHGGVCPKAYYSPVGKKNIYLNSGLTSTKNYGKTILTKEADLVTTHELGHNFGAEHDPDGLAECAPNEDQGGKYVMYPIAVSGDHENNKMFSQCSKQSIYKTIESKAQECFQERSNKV

SMILES	Ki [1] [nM]	further results
CC(c1cccc(Cl)c1)N(C(=O)[C@H](O)[C@@H](O)C(=O)N[C@H](C)c1ccc(-n2cccn2)cc1)C1CC1 (some centres unmarked) [Compound 2483]	> 1000	–
C[C@@H](NC(=O)[C@H](O)[C@@H](O)C(=O)N1CCc2ccccc2[C@@H]1c1csc(N)n1)c1ccc(-n2cccn2)cc1 [Compound 2585]	< 20	–
C[C@@H](NC(=O)[C@H](O)[C@@H](O)C(=O)N1Cc2cccnc2C1)c1ccc(-n2cccn2)c(OCc2ccccc2)c1 [Compound 2304]	< 20	–
C[C@@H](NC(=O)[C@](C)(O)[C@@H](O)C(=O)N1Cc2cccnc2C1)c1ccc(-n2cccn2)c(OCc2ccccc2)c1 [Compound 2357]	< 20	–
C[C@@H](NC(=O)[C@H](O)[C@@H](O)C(=O)N1C2CCC1c1cc(F)c(F)cc12)c1ccc(-n2cccn2)cc1 [Compound 2096]	100 to 1000	–
C[C@@H](NC(=O)[C@](C)(O)[C@@H](O)C(=O)N1Cc2cccnc2C1)c1ccc(-c2cccc(OCCC3CCCCC3)c2)cc1 [Compound 2353A]	100 to 1000	–
C[C@@H](NC(=O)[C@](C)(O)[C@@H](O)C(=O)N1CCCC1(C)c1cccc(Cl)c1)c1ccc(-n2cccn2)cc1 (some centres unmarked) [drawing 1303]	–	Ki [2]: 0.75 nM
C[C@@H](NC(=O)[C@H](O)[C@@H](O)C(=O)N1CCCCC1c1ccccc1)c1ccc(-n2cccn2)cc1 (some centres unmarked) [Compound 2410]	< 20	–
COc1cc2c(cc1OC)C(c1ccccc1)N(C(=O)[C@H](O)[C@@H](O)C(=O)N[C@H](C)c1ccc(-n3cccn3)cc1)CC2 (some centres unmarked) [Compound 2442]	< 20	–
C[C@@H](NC(=O)[C@](C)(O)[C@@H](O)C(=O)N1CCc2ncccc2C1)c1ccc(-n2cccn2)cc1 [Compound 2078]	100 to 1000	–
C[C@@H](NC(=O)[C@H](O)[C@@H](O)C(=O)N1CCC[C@@H]1c1ccn(-c2ccccc2)n1)c1ccc(-n2cccn2)cc1 [Compound 2597]	< 20	–
C[C@@H](NC(=O)[C@H](O)[C@@H](O)C(=O)N1CCCN1c1ccccc1)c1ccc(-n2cccn2)cc1 [Compound 2496]	100 to 1000	–
C[C@@H](NC(=O)[C@H](O)[C@@H](O)C(=O)N1CC(C)(C)C[C@]1(C)c1cccc(Cl)c1)c1ccc(-n2cccn2)cc1 [Compound 2240]	20 to 100	–
C[C@@H](NC(=O)[C@H](O)[C@@H](O)C(=O)N1CC=C[C@@H]1c1cccc(Cl)c1)c1ccc(-n2cccn2)cc1 [Compound 2264]	< 20	–
CCNc1nc(C2c3ccccc3CN2C(=O)[C@H](O)[C@@H](O)C(=O)N[C@H](C)c2ccc(-n3cccn3)cc2)cs1 (some centres unmarked)	–	Ki [2]: 0.16 nM
COc1cc([C@@H](C)NC(=O)[C@](C)(O)[C@@H](O)C(=O)N2Cc3cccnc3C2)ccc1Br [Compound 2356]	> 1000	–
C[C@@H](NC(=O)[C@H](O)[C@@H](O)C(=O)N1Cc2cncnc2C1)c1ccc(-n2cccn2)cc1 [Compound 2044]	< 20	–
CC#CCOc1cc([C@@H](C)NC(=O)[C@H](O)[C@@H](O)C(=O)N2CC=CC2c2cccc(Cl)c2)ccc1-n1cccn1 (some centres unmarked) [drawing 1314]	–	Ki [2]: 1.54 nM
Cc1nc2ccccc2n1Cc1ccc(CNC(=O)[C@H](O)[C@@H](O)C(=O)N2Cc3ccccc3C2)s1	–	Ki (Ki (nM), TACE, representative compounds, numeric values): 0.5 nM

SMILES	Ki [1] [nM]	further results
C[C@@H](NC(=O)[C@H](O)[C@@H](O)C(=O)N1CCc2ccccc21)c1ccc(-n2cccn2)cc1 [Compound 2441]	20 to 100	–
Cc1noc([C@H]2c3ccccc3CN2C(=O)[C@H](O)[C@@H](O)C(=O)N[C@H](C)c2ccc(-n3cccn3)cc2)n1 (stereo in doubt) [Compound 2528]	< 20	–
CC(c1cccc(Cl)c1)N(CC1CC1)C(=O)[C@H](O)[C@@H](O)C(=O)N[C@H](C)c1ccc(-n2cccn2)cc1 (some centres unmarked) [Compound 2485]	> 1000	–
C[C@H](c1ccc(-n2cccn2)cc1)N1CCO[C@H]([C@@H](O)C(=O)N2Cc3ccccc3C2)C1=O [Compound 2474]	> 1000	–
CNc1ncc2c(n1)CN(C(=O)[C@H](O)[C@@H](O)C(=O)N[C@H](C)c1ccc(-n3cccn3)cc1)C2C (some centres unmarked) [Compound 2054]	< 20	–
COc1cccc([C@@H](C)NC(=O)[C@H](O)[C@@H](O)C(=O)N2Cc3cccnc3C2)c1 [Compound 2306]	> 1000	–
CC(C)Nc1nc([C@@H]2c3ccccc3CN2C(=O)[C@H](O)[C@@H](O)C(=O)N[C@H](C)c2ccc(-n3cccn3)cc2)cs1 [Compound 2593]	< 20	–
CCNc1nnc([C@H]2c3ccccc3CN2C(=O)[C@H](O)[C@@H](O)C(=O)N[C@H](C)c2ccc(-n3cccn3)cc2)o1 (stereo in doubt) [Compound 2527]	< 20	–
CC#CCOc1cc([C@@H](C)NC(=O)[C@H](O)[C@@H](O)C(=O)N2CCC[C@@H]2c2cccc(Cl)c2)ccc1-n1cccn1 [drawing 1305]	–	Ki [2]: 0.85 nM
Cc1cccc(C)c1Cc1csc(CNC(=O)[C@H](O)[C@@H](O)C(=O)N2CCCC2c2cccc(N3CCN(C)CC3)c2)n1 (some centres unmarked)	–	Ki [2]: 2.5 nM
C[C@@H](NC(=O)[C@H](O)[C@@H](O)C(=O)N1CC=CC1c1cccc(Cl)c1)c1ccc(-n2cccn2)cc1 (some centres unmarked)	–	Ki [2]: 0.6 nM
CO[C@@H](C(=O)NCc1ccc(-c2ccc(F)cc2OCCC(C)(C)C)cc1)[C@@H](O)C(=O)N1Cc2cccnc2C1 [Compound 2475]	20 to 100	–
C[C@@H](NC(=O)[C@](C)(O)[C@@H](O)C(=O)N1Cc2cncnc2C1(C)C)c1ccc(-n2cccn2)cc1 [Compound 2047]	100 to 1000	–
C[C@@H](NC(=O)[C@H](O)[C@@H](O)C(=O)N(C)C1Cc2ccccc2C1)c1ccc(-n2cccn2)cc1 [Compound 2489]	20 to 100	–
C[C@@H](NC(=O)[C@H](O)[C@@H](O)C(=O)N1CCc2nc(N)ncc2C1)c1ccc(-n2cccn2)cc1 [Compound 2075]	20 to 100	–
C[C@@H](NC(=O)[C@H](O)[C@@H](O)C(=O)N1CCc2ncncc2C1)c1ccc(-n2cccn2)cc1 [Compound 2079]	100 to 1000	–
CNc1nc([C@H]2CC(F)(F)CN2C(=O)[C@H](O)[C@@H](O)C(=O)N[C@H](C)c2ccc(-n3cccn3)cc2)cs1 [drawing 1327]	–	Ki [2]: 3.9 nM
CC#CCOc1cc([C@@H](C)NC(=O)[C@](C)(O)[C@@H](O)C(=O)N2Cc3cccnc3C2)ccc1-n1cccn1 [Compound 2360]	< 20	–

Further lines, with some results ahead:

Ki [1] [nM]	SMILES	further results
< 20	CCNc1nc([C@H]2c3ccccc3CN2C(=O)[C@H](O)[C@@H](O)C(=O)N[C@H](C)c2ccc(-n3cccn3)cc2)cs1 [Compound 2594]	–
100 to 1000	C[C@H]1CN(c2ccccc2C#N)CCC1CNC(=O)[C@H](O)[C@@H](O)C(=O)N1Cc2ccccc2C1 (some centres unmarked) [Compound 2146]	–
20 to 100	N#Cc1cc(F)ccc1N1CCC(CNC(=O)[C@H](O)[C@@H](O)C(=O)N2Cc3cccnc3C2)CC1 [Compound 2003]	–
20 to 100	CCOC(=O)c1cccn2cc([C@H]3CCCN3C(=O)[C@H](O)[C@@H](O)C(=O)N[C@H](C)c3ccc(-n4cccn4)cc3)nc12 [Compound 2508]	–
< 20	CCOc1ncccc1-c1ccc(CNC(=O)[C@H](O)[C@@H](O)C(=O)N2CCC[C@@H]2c2cccc(Cl)c2)cc1 [Compound 2334]	–
< 20	CNc1nc([C@H]2CCCN2C(=O)[C@H](O)[C@@H](O)C(=O)N[C@H](C)c2ccc(-n3cccn3)cc2)cs1 [Compound 2252]	–
> 1000	N#Cc1ccccc1N1CCC2(CC1)CC2NC(=O)[C@H](O)[C@@H](O)C(=O)N1Cc2ccccc2C1 (some centres unmarked) [Compound 2154]	–
20 to 100	CNc1nc([C@H]2C[C@@H]3C[C@@H]3N2C(=O)[C@H](O)[C@@H](O)C(=O)N[C@H](C)c2ccc(-n3cccn3)cc2)cs1 [Compound 2246]	–
20 to 100	C[C@@H]1CN(c2ccc(F)cc2C#N)CCC1CNC(=O)[C@H](O)[C@@H](O)C(=O)N1CCCC1 (some centres unmarked) [Compound 2150]	–
20 to 100	C[C@@H](NC(=O)[C@H](O)[C@@H](O)C(=O)N1CCC[C@@H]1c1csc(N2CCCCC2)n1)c1ccc(-n2cccn2)cc1 [Compound 2258]	–
> 1000	N#Cc1ccccc1N1CCC2(CC1)CC2NC(=O)[C@H](O)[C@@H](O)C(=O)N1CCC[C@@H]1c1ccccc1 (some centres unmarked) [Compound 2153]	–
< 20	Cc1nc([C@H]2CCCN2C(=O)[C@H](O)[C@@H](O)C(=O)N[C@H](C)c2ccc(-n3cccn3)cc2)cs1 [Compound 2591]	–
> 1000	N#Cc1ccccc1N1CCC2(CC1)CC2NC(=O)[C@H](O)[C@@H](O)C(=O)N1CCC[C@@H]1c1ccccc1 (some centres unmarked) [Compound 2152]	–
< 20	N#Cc1cc(F)ccc1N1CCC(CNC(=O)[C@H](O)[C@@H](O)C(=O)N2Cc3ccncc3C2)CC1 [Compound 2007]	–
20 to 100	C[C@@H](NC(=O)[C@H](O)[C@@H](O)C(=O)N1CCC[C@@H]1c1csc(N(C)C)n1)c1ccc(-n2cccn2)cc1 [Compound 2260]	–
20 to 100	CC(C)(NC(=O)[C@H](O)[C@@H](O)C(=O)N1CCCC1)C1CCN(c2ccc(F)cc2C#N)CC1 [Compound 2157]	–
< 20	CC(C)Nc1nc([C@H]2CCCN2C(=O)[C@H](O)[C@@H](O)C(=O)N[C@H](C)c2ccc(-n3cccn3)cc2)cs1 [Compound 2257]	–
< 20	CNc1nc(C2c3ccccc3CN2C(=O)[C@H](O)[C@@H](O)C(=O)N[C@H](C)c2ccc(-n3cccn3)cc2)cs1 (some centres unmarked) [Compound 2445]	–
< 20	CNc1nc([C@H]2CCCN2C(=O)[C@H](O)[C@@H](O)C(=O)NCC2CCN(c3ccc(F)cc3C#N)CC2)cs1 [Compound 2253]	–
< 20	C[C@@H]1CN(c2ccccc2C#N)CCC1CNC(=O)[C@H](O)[C@@H](O)C(=O)N1CCC[C@@H]1c1ccccc1 (some centres unmarked) [Compound 2144]	–
< 20	O=C(NCC1CCN(c2ccccc2OC(F)(F)F)CC1)[C@H](O)[C@@H](O)C(=O)N1Cc2cccnc2C1 [Compound 2035]	–
< 20	C[C@@H](NC(=O)[C@H](O)[C@@H](O)C(=O)N1CCC[C@@H]1c1csc(Nc2cccnc2)n1)c1ccc(-n2cccn2)cc1 [Compound 2259]	–
< 20	C[C@@H](NC(=O)[C@H](O)[C@@H](O)C(=O)N1CCc2ccc(F)cc2C1)c1ccc(-n2cccn2)cc1 [Compound 2439]	–
< 20	CCOc1cc(F)ccc1-c1ccc(CNC(=O)[C@H](O)[C@@H](O)C(=O)N2CCCC2)nc1 [Compound 2349]	–
> 1000	N#Cc1cc(F)ccc1N1CCC(CNC(=O)[C@H](N)[C@@H](O)C(=O)N2CCCC2)CC1 [Compound 2460]	–

— patent publication US7652020B2, “Compounds for the treatment of inflammatory disorders” (Schering Corporation, priority 2004, dated 2010)
